Two compounds from paper PMC7988029, “Growth optimization and identification of an ω-transaminase by a novel native PAGE activity staining method in a Bacillus sp. strain BaH isolated from Iranian soil” (AMB Express, 2021) can be followed below.

For this experiment, the system named is T1, BaH-ω-TA.
T1 construct: gene omega-TA; native enzyme in unpurified crude extract of the wild-type strain; one activity band on native PAGE
The experiment can be described thus: acetophenone formation by HPLC, Michaelis-Menten non-linear fit. The note with it: 0.1 mM PLP, Britton-Robinson buffer pH 6, 15 % DMSO, 35 °C, 1 mg/mL crude extract, read-out: apparent Km. It counts as biochemical, Bacillus sp. BaH.

Read-outs that look alike come from different tables or passages of the source.

In general, Km refers to the substrate concentration at which the rate is half of its maximum. Turning to `C[C@H](N)c1ccccc1` [(S)-MBA], the Km (60 mM pyruvate) was found to be 2.6 mM.

On to `CC(=O)C(=O)O` [pyruvate], for which the Km (70 mM (S)-MBA) was 17.3 mM.
